Results as given in PMC8815882, “Screening the pandemic response box identified benzimidazole carbamates, Olorofim and ravuconazole as promising drug candidates for the treatment of eumycetoma” (PLoS Neglected Tropical Diseases, 2022).
pIC50: −log10 of the molar value. Like-named read-outs stand apart in the source and are kept apart here.

Legend:
[1] = system: M. mycetomatis genome strain MM55; assay: CLSI M38-A2 based in vitro susceptibility screening (XTT or resazurin), growth at fixed concentration; type: cell-based, Madurella mycetomatis; details: Madurella mycetomatis; for Percent fungal survival at 100 µM: read-out: Percentage survival at 100um, 100 uM A (second replicate column)
M. mycetomatis MM55 = assay: IC50 determination, 2-fold dilution series 16 to 0.03125 μM; type: cell-based, Madurella mycetomatis; details: for pIC50 / IC90: Madurella mycetomatis
[2] = mean of three, M. mycetomatis MM55, read-out: Percentage survival at 25um, 25 uM mean
[3] = replicate A, M. mycetomatis MM55, read-out: Percentage survival at 25um, 25 um A
[4] = replicate B, M. mycetomatis MM55, read-out: Percentage survival at 25um, 25 uM B
[5] = replicate C, M. mycetomatis MM55, read-out: Percentage survival at 25um, 25 uM C
[6] = mean of three, M. mycetomatis MM55, read-out: Percentage survival at 100um, 100 uM mean
[7] = replicate 1, M. mycetomatis MM55, read-out: Percentage survival at 100um, 100 uM A (first replicate column)
[8] = replicate 2, M. mycetomatis MM55
[9] = replicate 3, M. mycetomatis MM55, read-out: Percentage survival at 100um, 100 uM A (third replicate column)
[10] = MM55, mean of replicates, read-out: IC50 mean
[11] = MM55, replicate 1, read-out: IC50 1 um
[12] = MM55, replicate 1, read-out: IC90 1 um
[13] = MM55, replicate 2, read-out: IC50 2 um
[14] = MM55, replicate 2, read-out: IC90 2 um
[15] = MM55, replicate 3, read-out: IC50 3 um
[16] = MM55, replicate 3, read-out: IC90 3 um
[17] = mean of three replicates, read-out: Percentage survival at 25um, 25 uM mean
[18] = replicate A, read-out: Percentage survival at 25um, 25 um A
[19] = replicate B, read-out: Percentage survival at 25um, 25 uM B
[20] = replicate C, read-out: Percentage survival at 25um, 25 uM C
[21] = mean of three replicates, read-out: Percentage survival at 100um, 100 uM mean
[22] = replicate 1, read-out: Percentage survival at 100um, 100 uM A (first replicate column)
[23] = replicate 3, read-out: Percentage survival at 100um, 100 uM A (third replicate column)
[24] = MM55, mean of three replicates, read-out: IC50 mean
[25] = MM55, mean of three replicates, read-out: IC90 mean
[26] = mean, read-out: Percentage survival at 25um, 25 uM mean
[27] = mean, read-out: Percentage survival at 100um, 100 uM mean
[28] = replicate (first column), read-out: Percentage survival at 100um, 100 uM A
[29] = replicate (second column), read-out: Percentage survival at 100um, 100 uM A
[30] = replicate (third column), read-out: Percentage survival at 100um, 100 uM A
[31] = MM55, replicate 1, read-out: IC50 1
[32] = MM55, replicate 1, read-out: IC90 1
[33] = MM55, replicate 2, read-out: IC50 2
[34] = MM55, replicate 2, read-out: IC90 2
[35] = MM55, replicate 3, read-out: IC50 3
[36] = MM55, replicate 3, read-out: IC90 3

Row | Compound | pIC50 (M. mycetomatis MM55; [10]) | pIC50 (M. mycetomatis MM55; [11]) | IC90 (M. mycetomatis MM55; [12]) [µM] | pIC50 (M. mycetomatis MM55; [13]) | IC90 (M. mycetomatis MM55; [14]) [µM] | pIC50 (M. mycetomatis MM55; [15]) | IC90 (M. mycetomatis MM55; [16]) [µM] | Drug static or cidal (M. mycetomatis MM55) | activity at 25 µM [1, 17] [%] | activity at 25 µM [1, 18] [%] | activity at 25 µM [1, 19] [%] | activity at 25 µM [1, 20] [%] | activity at 100 µM [1, 21] [%] | activity at 100 µM [1, 22] [%] | Percent fungal survival at 100 µM ([1]; replicate 2) [%] | activity at 100 µM [1, 23] [%] | pIC50 (M. mycetomatis MM55; [24]) | other results
1 | O=[N+]([O-])c1ccc2c(CCc3c[nH]c4ccccc34)c[nH]c2c1 [MMV1593539] | 4.91 | 5.49 | 18 | 4.80 | 23.4 | 4.74 | 23.7 |  |  |  |  |  |  |  |  |  |  | activity at 25 µM [1, 2]: 4.51%; activity at 25 µM [1, 3]: 2.73%; activity at 25 µM [1, 4]: 8.11%; activity at 25 µM [1, 5]: 2.7%; activity at 100 µM [1, 6]: 47.9%; activity at 100 µM [1, 7]: 0.0782%; Percent fungal survival at 100 µM [1, 8]: 136%; activity at 100 µM [1, 9]: 7.7%; Drug static or cidal (M. mycetomatis MM55; M. mycetomatis): Cidal; IC90 (M. mycetomatis MM55; MM55, mean of replicates, read-out: IC90 mean): 21.7 µM
2 | COc1cc(NS(=O)(=O)c2ccc(C)cc2)c2ncccc2c1 [MMV098836] | < 4.60 | < 4.60 |  | < 4.60 |  | < 4.60 |  | Static |  |  |  |  |  |  |  |  |  | activity at 25 µM ([1]; mean of replicates, MM55, read-out: Percentage survival at 25um, 25 uM mean): 6.7%; activity at 25 µM ([1]; replicate A, MM55, read-out: Percentage survival at 25um, 25 um A): 6.32%; activity at 25 µM ([1]; replicate B, MM55, read-out: Percentage survival at 25um, 25 uM B): -0.482%; activity at 25 µM ([1]; replicate C, MM55, read-out: Percentage survival at 25um, 25 uM C): 14.3%; activity at 100 µM ([1]; mean of replicates, MM55, read-out: Percentage survival at 100um, 100 uM mean): 6.45%; activity at 100 µM ([1]; replicate 1, MM55, read-out: Percentage survival at 100um, 100 uM A): 4.22%; activity at 100 µM ([1]; replicate 2, MM55, read-out: Percentage survival at 100um, 100 uM A): 0.942%; activity at 100 µM ([1]; replicate 3, MM55, read-out: Percentage survival at 100um, 100 uM A): 14.2%; IC90 (M. mycetomatis MM55; MM55, IC90, mean of replicates, read-out: IC90 mean): > 25 µM; IC90 (M. mycetomatis MM55; MM55, IC90, replicate 1, read-out: IC90 1 um): > 25 µM; IC90 (M. mycetomatis MM55; MM55, IC90, replicate 2, read-out: IC90 2 um): > 25 µM; IC90 (M. mycetomatis MM55; MM55, IC90, replicate 3, read-out: IC90 3 um): > 25 µM
3 | N=C(N)NCCCCC(=O)Nc1cc(C(F)(F)F)cc(NC(=O)c2cc(C(=O)Nc3cc(C(F)(F)F)cc(NC(=O)CCCCNC(=N)N)c3O[C@@H]3CCNC3)ncn2)c1O[C@@H]1CCNC1 [MMV1634402] |  | 5.18 | 20 | 4.79 | 23.9 | 4.86 | 22.8 | Cidal | 14 | 3.69 | 8.57 | 29.8 | 18.1 | 14.1 | 19.7 | 20.5 | 4.92 | IC90 (M. mycetomatis MM55; [25]): 22.2 µM
4 | N=c1n(CCN2CCCCC2)c2ccccc2n1CC(O)COc1ccc(Cl)cc1Cl (stereo not drawn) [MMV394033] |  | 4.73 | > 25 | 4.79 | 23.5 | 4.79 | 23.7 | Cidal | -4.41 | -10.3 | -2.83 | -0.144 | -2.82 | -5.36 | -3.08 | -0.0169 | 4.77 | 
5 | O=[N+]([O-])/C(Br)=C/c1ccc(Br)o1 [MMV1645051] |  |  |  |  |  |  |  | Static |  | 2.2 | -0.118 | 2.96 |  |  |  |  |  | activity at 25 µM [1, 26]: 1.68%; activity at 100 µM [1, 27]: 7.68%; activity at 100 µM [1, 28]: -0.809%; activity at 100 µM [1, 29]: 7.74%; activity at 100 µM [1, 30]: 16.1%; IC90 (M. mycetomatis MM55; MM55, read-out: IC90 mean): > 25 µM; pIC50 (M. mycetomatis MM55; [31]): < 4.60; IC90 (M. mycetomatis MM55; [32]): > 25 µM; pIC50 (M. mycetomatis MM55; [33]): 4.64; IC90 (M. mycetomatis MM55; [34]): > 25 µM; pIC50 (M. mycetomatis MM55; [35]): < 4.60; IC90 (M. mycetomatis MM55; [36]): > 25 µM
6 | NCC(=O)Nc1ccc(-n2nc(C(F)(F)F)cc2-c2ccc3c(ccc4ccccc43)c2)cc1 [MMV1578560] |  |  |  |  |  |  |  | Static |  | 29.4 | -2.28 | 2.05 |  |  |  |  |  | activity at 25 µM [1, 26]: 9.74%; activity at 100 µM [1, 27]: 3%; activity at 100 µM [1, 28]: -6.61%; activity at 100 µM [1, 29]: 10.2%; activity at 100 µM [1, 30]: 5.38%; IC90 (M. mycetomatis MM55; MM55, read-out: IC90 mean): > 25 µM; pIC50 (M. mycetomatis MM55; [31]): 4.76; IC90 (M. mycetomatis MM55; [32]): > 25 µM; pIC50 (M. mycetomatis MM55; [33]): 4.64; IC90 (M. mycetomatis MM55; [34]): > 25 µM; pIC50 (M. mycetomatis MM55; [35]): < 4.60; IC90 (M. mycetomatis MM55; [36]): > 25 µM
7 | Oc1c(C(Nc2ccccn2)c2ccccc2)ccc2cccnc12 (stereo not drawn) [MMV565773] |  | 4.78 | 24.2 | 4.80 | 24.9 | 4.78 | 24.4 | Cidal | 15.4 | 9.67 | 6.46 | 30.1 | 11.7 | 9.08 | 8.24 | 17.8 | 4.79 | IC90 (M. mycetomatis MM55; [25]): 24.5 µM
8 | Nc1nnnn1CCOc1c2[nH]c3ccc(Cl)cc3c2cc2c1[nH]c1ccc(Cl)cc12 [MMV1633966] | 4.96 | 5.37 | > 25 | 4.78 | 24 | 4.91 | 23.5 |  |  |  |  |  |  |  |  |  |  | activity at 25 µM [1, 2]: 3.05%; activity at 25 µM [1, 3]: 1.67%; activity at 25 µM [1, 4]: 3.75%; activity at 25 µM [1, 5]: 3.74%; activity at 100 µM [1, 6]: 3.34%; activity at 100 µM [1, 7]: 3.63%; Percent fungal survival at 100 µM [1, 8]: 1.28%; activity at 100 µM [1, 9]: 5.11%; Drug static or cidal (M. mycetomatis MM55; M. mycetomatis): Cidal
